The assay relates to P388 leukemia ip, CD2F1 mice, survival T/C. Kind of assay: NCI In Vivo Anticancer Drug Screen. Data for tumor model P388 Leukemia (intraperitoneal) in CD2F1 (CDF1) mice. The conditions noted are these: endpoint: median survival time, higher = longer survival. An outline of the steps: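 Mice carrying the transplanted tumor received test compound or vehicle. Survival was recorded in each group, and the value is the treated-group measurement divided by that of the vehicle-treated control group.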

Setting [1] is: dose: 50.0 mg/kg/injection, schedule: Q01DX009 (ip), vehicle: saline with Tween-80.
Where [2] appears, read: dose: 100.0 mg/kg/injection, schedule: Q01DX009 (ip), vehicle: saline with Tween-80.
[3] abbreviates: dose: 200.0 mg/kg/injection, schedule: Q01DX009 (ip), vehicle: saline with Tween-80.
[4] abbreviates: dose: 6.25 mg/kg/injection, schedule: Q01DX005 (ip), vehicle: saline with Tween-80.
Where [5] appears, read: dose: 12.5 mg/kg/injection, schedule: Q01DX005 (ip), vehicle: saline with Tween-80.
[6] abbreviates: dose: 50.0 mg/kg/injection, schedule: Q01DX005 (ip), vehicle: saline with Tween-80.
[7] abbreviates: dose: 100.0 mg/kg/injection, schedule: Q01DX005 (ip), vehicle: saline with Tween-80.
The mark [8] stands for this setting: dose: 200.0 mg/kg/injection, schedule: Q01DX005 (ip), vehicle: saline with Tween-80.
The mark [9] stands for this setting: dose: 25.0 mg/kg/injection, schedule: Q01DX009 (ip), vehicle: saline with Tween-80.

Our source for the T/C values is PubChem BioAssay AID330 (DTP/NCI, 2004).

Molecules are shown by their SMILES. Values joined by “and” are separate entries in the source; they are usually repeats but may differ in a detail not shown here. Identical values can stand only once. Inconclusive results and toxic doses are left out.

For `CCOC(=O)c1cnc2cc3c(cc2c1Nc1ccccc1C(=O)OC)OCO3`, the T/C (dose: 50.0 mg/kg/injection, schedule: Q04DX002 (ip), vehicle: Klucel (hydroxypropylcellulose) (HPC)) was 101 % of control; the T/C (dose: 100.0 mg/kg/injection, schedule: Q04DX002 (ip), vehicle: Klucel (hydroxypropylcellulose) (HPC)) is 101 % of control; the T/C (dose: 200.0 mg/kg/injection, schedule: Q04DX002 (ip), vehicle: Klucel (hydroxypropylcellulose) (HPC)) is 97 % of control.

Take `COc1ccc2c(c1)C(C)(C#N)N(C)C(=O)C2=O` (stereo unspecified): the T/C (dose: 100.0 mg/kg/injection, schedule: Q01DX001 (ip), vehicle: saline with Tween-80) was 100 % of control; the T/C (dose: 200.0 mg/kg/injection, schedule: Q01DX001 (ip), vehicle: saline with Tween-80) was 101 % of control; the T/C (dose: 400.0 mg/kg/injection, schedule: Q01DX001 (ip), vehicle: saline with Tween-80) was 96 % of control.

On to `O/N=C1/CCCCC/C1=N/O`, for which the T/C is 98 % of control under setting [1]; 100 % of control under setting [2]; 100 % of control under setting [3]; 107 % of control (dose: 400.0 mg/kg/injection, schedule: Q01DX009 (ip), vehicle: saline with Tween-80).

`COc1cc2nc3cc([N+](=O)[O-])ccc3c(NCCNCC(C)(C)O)c2cc1OC`: the T/C reads like this: under setting [4], 102 % of control and 105 % of control and 96 % of control; under setting [5], 109 % of control and 115 % of control and 117 % of control; (dose: 25.0 mg/kg/injection, schedule: Q01DX005 (ip), vehicle: saline with Tween-80) 117 % of control and 118 % of control and 121 % of control.

Turning to `COP(=O)(CC(=O)OC(CC(=O)OCc1ccccc1)C(=O)OCc1ccccc1)OC` (stereo unspecified), the T/C under setting [6] is 98 % of control, the T/C under setting [7] was 92 % of control and the T/C under setting [8] was 93 % of control.

In the case of `N#CN(Cc1ccccc1)C(c1ccccc1)(c1ccccc1)c1ccccc1.[Cl][Sn]([c]1ccccc1)([c]1ccccc1)[c]1ccccc1`, the T/C is 91 % of control (dose: 3.12 mg/kg/injection, schedule: Q01DX005 (ip), vehicle: saline with Tween-80); 98 % of control under setting [4]; 91 % of control under setting [5].

As for `c1cc2sc3ccc(OCCCN4CCCCC4)cc3c2cc1OCCCN1CCCCC1`, the T/C reads like this: (dose: 12.5 mg/kg/injection, schedule: Q01DX009 (ip), vehicle: saline with Tween-80) 104 % of control; under setting [9], 115 % of control; under setting [1], 91 % of control.

On to `O=P(CSCCO)(c1ccccc1)c1ccccc1`, for which the T/C is 89 % of control (dose: 60.0 mg/kg/injection, schedule: Q01DX005 (ip), vehicle: saline with Tween-80); 93 % of control (dose: 120.0 mg/kg/injection, schedule: Q01DX005 (ip), vehicle: saline with Tween-80); 97 % of control (dose: 240.0 mg/kg/injection, schedule: Q01DX005 (ip), vehicle: saline with Tween-80).

For the compound `CC(C)(C)C1=CC(CC(N)=O)(C(C)(C)C)OC1=O` (stereo unspecified), the T/C is 98 % of control (dose: 50.0 mg/kg/injection, schedule: Q01DX005 (ip), vehicle: Klucel (hydroxypropylcellulose) (HPC)); 100 % of control (dose: 100.0 mg/kg/injection, schedule: Q01DX005 (ip), vehicle: Klucel (hydroxypropylcellulose) (HPC)); 105 % of control (dose: 200.0 mg/kg/injection, schedule: Q01DX005 (ip), vehicle: Klucel (hydroxypropylcellulose) (HPC)).

With `C=C1C(=O)OC2C1C(OC(=O)/C(C)=C/C)CC(O)(CCl)C1C(OC(C)=O)C=C(C)C21O` (stereo unspecified), the T/C was 117 % of control under setting [9], 109 % of control under setting [1], 114 % of control under setting [2] and 108 % of control under setting [3].

For the compound `CC(=O)Oc1ccc(/C=N/NC(N)=S)nc1`, the T/C (dose: 4.0 mg/kg/injection, schedule: Q01DX009 (ip), vehicle: saline with Tween-80) is 154 % of control; the T/C (dose: 14.6 mg/kg/injection, schedule: Q01DX009 (ip), vehicle: saline with Tween-80) was 163 % of control; the T/C (dose: 22.0 mg/kg/injection, schedule: Q01DX009 (ip), vehicle: saline with Tween-80) is 177 % of control; the T/C (dose: 33.0 mg/kg/injection, schedule: Q01DX009 (ip), vehicle: saline with Tween-80) is 181 % of control; the T/C (dose: 37.5 mg/kg/injection, schedule: Q01DX009 (ip), vehicle: saline with Tween-80) is 170 % of control; the T/C under setting [1] was 204 % of control. For the same compound, the T/C by setting is: (dose: 75.0 mg/kg/injection, schedule: Q01DX009 (ip), vehicle: saline with Tween-80) 173 % of control; (dose: 150.0 mg/kg/injection, schedule: Q01DX009 (ip), vehicle: saline with Tween-80) 88 % of control.

Take `C[C@@](O)(/C=C/[C@H]1CC=CC(=O)O1)[C@@H](C[C@@H](O)\C=C/C=C\C=C\CO)OP(=O)(O)O`: the T/C is 150 % of control and 157 % of control (dose: 12.5 mg/kg/injection, schedule: Q01DX005 (ip), vehicle: other); 174 % of control (dose: 25.0 mg/kg/injection, schedule: Q01DX005 (ip), vehicle: other).

For the compound `COc1ccc(/C=C/c2nc(Nc3ccc(S(N)(=O)=O)cc3)c3ccccc3n2)cc1`, the T/C runs as follows: (dose: 50.0 mg/kg/injection, schedule: Q01DX009 (ip), vehicle: acetone) 102 % of control; (dose: 100.0 mg/kg/injection, schedule: Q01DX009 (ip), vehicle: acetone) 99 % of control; (dose: 200.0 mg/kg/injection, schedule: Q01DX009 (ip), vehicle: acetone) 96 % of control.

In the case of `O=C1CC(SC(=S)N2CCOCC2)C(=O)N1` (stereo unspecified), the T/C was 99 % of control and 103 % of control (dose: 100.0 mg/kg/injection, schedule: Q04DX002 (ip), vehicle: saline); 99 % of control and 97 % of control (dose: 200.0 mg/kg/injection, schedule: Q04DX002 (ip), vehicle: saline); 100 % of control and 109 % of control (dose: 400.0 mg/kg/injection, schedule: Q04DX002 (ip), vehicle: saline).

For `Cn1c(=O)c(Br)c(Br)c(=O)n1-c1ccc(Br)cc1`, the T/C runs as follows: (dose: 42.5 micrograms/kg/injection, schedule: Q01DX009 (ip), vehicle: Klucel (hydroxypropylcellulose) (HPC)) 95 % of control; (dose: 85.0 micrograms/kg/injection, schedule: Q01DX009 (ip), vehicle: Klucel (hydroxypropylcellulose) (HPC)) 103 % of control; (dose: 170.0 micrograms/kg/injection, schedule: Q01DX009 (ip), vehicle: Klucel (hydroxypropylcellulose) (HPC)) 100 % of control.

`CCOC(=O)c1ccc(NC(=O)CCOc2ccccc2)cc1`: the T/C is 88 % of control (dose: 60.0 mg/kg/injection, schedule: Q01DX005 (ip), vehicle: Klucel (hydroxypropylcellulose) (HPC)); 88 % of control (dose: 120.0 mg/kg/injection, schedule: Q01DX005 (ip), vehicle: Klucel (hydroxypropylcellulose) (HPC)); 87 % of control (dose: 240.0 mg/kg/injection, schedule: Q01DX005 (ip), vehicle: Klucel (hydroxypropylcellulose) (HPC)).

Regarding `COc1ccc(N=Nc2c(O)n(-c3ccccc3Cl)c(=S)n(-c3ccc(C)cc3)c2=O)cc1`, the T/C is 105 % of control (dose: 100.0 mg/kg/injection, schedule: Q01DX001 (ip), vehicle: Klucel (hydroxypropylcellulose) (HPC)); 97 % of control (dose: 200.0 mg/kg/injection, schedule: Q01DX001 (ip), vehicle: Klucel (hydroxypropylcellulose) (HPC)); 102 % of control (dose: 400.0 mg/kg/injection, schedule: Q01DX001 (ip), vehicle: Klucel (hydroxypropylcellulose) (HPC)).

As for `CS(=O)(=O)/C=C/c1ccccc1`, the T/C was 103 % of control under setting [1], 90 % of control under setting [2] and 90 % of control under setting [3].

In the case of `CNc1ncnc2c1cnn2C`, the T/C by setting is: under setting [1], 95 % of control; (dose: 100.0 mg/kg/injection, schedule: Q04DX003 (ip), vehicle: saline) 104 % of control; (dose: 200.0 mg/kg/injection, schedule: Q04DX003 (ip), vehicle: saline) 109 % of control.

Turning to `CN(C)c1cc(N(C)C)c(N(C)C)cc1N(C)C`, the T/C runs as follows: under setting [6], 109 % of control; under setting [7], 102 % of control; under setting [8], 100 % of control.

With `Nc1ncnc(N)c1NC(=O)c1ccccc1`, the T/C (dose: 60.0 mg/kg/injection, schedule: Q01DX005 (ip), vehicle: suspension in saline) was 98 % of control and the T/C (dose: 120.0 mg/kg/injection, schedule: Q01DX005 (ip), vehicle: suspension in saline) was 106 % of control.

With `O=C1/C(=C\c2ccccc2)C2OCC=C3CN4CCC56c7ccccc7N1C5C2C3CC46` (stereo unspecified), the T/C by setting is: (dose: 7.5 mg/kg/injection, schedule: Q01DX005 (ip), vehicle: saline with Tween-80) 106 % of control; (dose: 15.0 mg/kg/injection, schedule: Q01DX005 (ip), vehicle: saline with Tween-80) 108 % of control; (dose: 30.0 mg/kg/injection, schedule: Q01DX005 (ip), vehicle: saline with Tween-80) 99 % of control.
